What was measured:
[1] = target: human Orexin type 1 receptors (Homo sapiens (Human), UniProt O43613); experiment: Scintillation Proximity Assay (SPA) binding assay, [3H]SB-674042 displacement, CHO-hOX1 membranes; details: for OX1 pKi (SPA binding): Table 2, [3H]SB-674042 2 nM
[2] = target: human Orexin type 2 receptors (Homo sapiens (Human), UniProt O43614); experiment: Scintillation Proximity Assay (SPA) binding assay, [3H]EMPA displacement, HEK-hOX2 membranes; details: for OX2 pKi (SPA binding): Table 2, [3H]EMPA 2 nM
[3] = Measurement of brain fraction unbound (equilibrium dialysis); type: in vitro ADME; details: pH 7.4, rat brain homogenate, 37° C., read-out: FU brain (%, rat)
Experimental: Measurement of Brain Fraction Unbound (Equilibrium Dialysis)
Brain fractions unbound were determined using equilibrium dialysis in a 96-well format as described in Kalvass and Maurer, 2002. Brain homogenates were prepared using 2 ml/g CSF surrogate (7.30 g/l NaCl, 186.4 mg/l KCl, 239.9 mg/l MgCl2, 185.2 mg/l CaCl2), and 536.0 mg/l Na2HPO4.7H2O, pH 7.4). Dialysis membranes (12-14-kDA cutoff) obtained from Spectrum Laboratories Inc. (Rancho Dominguez, Calif.) were conditioned in water (HPLC grade) for 60 min, followed by 20 min in 20% ethanol, and 15 min in CSF surrogate.
Assay compound concentrations were 5 μM. Diluted brain homogenate was spiked with the compound of interest, and 150-μl aliquots were loaded into the 96-well equilibrium dialysis apparatus and dialyzed against an equal volume of CSF surrogate. Equilibrium was achieved by incubating the 96-well equilibrium dialysis apparatus in a temperature-controlled incubator at 37° C. for 5 h, using an orbital shaker at 125 rpm. At the end of the incubation period, 50-μl aliquots of brain homogenate and buffer were transferred to a 96-well plate, and the composition in each tube was balanced with control fluid to equalize the brain and buffer volumes. Sample extraction was performed by addition of 400 μl of acetonitrile containing internal standard (rolipram). The samples were then vortex-mixed and centrifuged, and 100 μl of supernatants was transferred into a 96-well plate, diluted with 200 μl of 16% acetonitrile/water, and analyzed by liquid chromatography-tandem mass spectrometry (LC-MS/MS).
The brain unbound fraction (FU brain) was calculated from the ratio of analyte/internal standard peak area ratios determined in buffer versus brain homogenate samples using equation (1), which accounts for the effect of tissue dilution on unbound fraction (Kalvass and Maurer, 2002):
[formula] where D is the dilution factor in brain homogenate and fu-diluted is the measured free fraction of diluted brain tissue. Results

Chain of human Orexin type 2 receptors (O43614 whole entry): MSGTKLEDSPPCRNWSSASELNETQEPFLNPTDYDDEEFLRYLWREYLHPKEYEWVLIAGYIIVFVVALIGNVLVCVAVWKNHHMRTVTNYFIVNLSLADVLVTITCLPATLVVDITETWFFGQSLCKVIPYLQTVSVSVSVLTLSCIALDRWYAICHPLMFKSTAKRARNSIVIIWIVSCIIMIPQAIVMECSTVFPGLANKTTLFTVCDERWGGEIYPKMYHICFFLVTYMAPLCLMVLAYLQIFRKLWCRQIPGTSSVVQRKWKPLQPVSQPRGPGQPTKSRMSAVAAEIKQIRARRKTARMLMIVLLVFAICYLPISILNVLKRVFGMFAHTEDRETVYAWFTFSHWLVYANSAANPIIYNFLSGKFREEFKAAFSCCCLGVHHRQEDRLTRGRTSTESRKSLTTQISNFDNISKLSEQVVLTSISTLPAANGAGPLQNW
Chain of human Orexin type 1 receptors (O43613 whole entry): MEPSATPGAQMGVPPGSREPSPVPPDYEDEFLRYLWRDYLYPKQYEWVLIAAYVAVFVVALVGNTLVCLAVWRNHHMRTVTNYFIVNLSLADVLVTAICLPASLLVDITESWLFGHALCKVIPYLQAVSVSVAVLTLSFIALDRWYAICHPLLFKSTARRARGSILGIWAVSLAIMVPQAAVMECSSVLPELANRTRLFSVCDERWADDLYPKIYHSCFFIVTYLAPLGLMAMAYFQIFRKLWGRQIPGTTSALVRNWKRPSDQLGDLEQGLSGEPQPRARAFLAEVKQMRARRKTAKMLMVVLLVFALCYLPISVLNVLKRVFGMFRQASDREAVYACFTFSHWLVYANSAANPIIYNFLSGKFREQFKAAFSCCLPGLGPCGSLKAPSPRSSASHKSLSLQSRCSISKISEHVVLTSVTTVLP

## C[C@@H]1C2CC(C2)N(C(=O)c2cc(F)ccc2-n2nccn2)C1CNc1cnc(C(F)(F)F)cn1 (single isomer, unassigned) [Example 223, N-{[(3R,4S) or (3S,4R)-2-[5-fluoro-2-(2H-1,2,3-triazol-2-yl)benzoyl]-4-methyl-2-azabicyclo[3.1.1]heptan-3-yl]methyl}-5-(trifluoromethyl)pyrazin-2-amine]
[1]
  OX1 pKi (SPA binding): 8.13
[2]
  OX2 pKi (SPA binding): 4.98
[3]
  fraction unbound at 5 h, 5 μM: 0.022

## Cc1ccc(-n2nccn2)c(C(=O)N2C3CC(C3)[C@@H](C)C2CNc2cnc(C(F)(F)F)cn2)n1 (mixture of isomers) [Example 165, cis-N-({4-methyl-2-[6-methyl-3-(2H-1,2,3-triazol-2-yl)pyridine-2-carbonyl]-2-azabicyclo[3.1.1]heptan-3-yl}methyl)-5-(trifluoromethyl)pyrazin-2-amine]
[1]
  OX1 pKi (SPA binding): 7.63
[2]
  OX2 pKi (SPA binding): 4.83
[3]
  fraction unbound at 5 h, 5 μM: 0.0477

## C[C@@H]1C2CC(C2)N(C(=O)c2cc(C#N)ccc2-n2nccn2)C1CNc1nc2cccnc2s1 (single isomer, unassigned) [Example 233, 3-[(3R,4S) or (3S,4R)-4-methyl-3-[({[1,3]thiazolo[5,4-b]pyridin-2-yl}amino)methyl]-2-azabicyclo[3.1.1]heptane-2-carbonyl]-4-(2H-1,2,3-triazol-2-yl)benzonitrile]
[1]
  OX1 pKi (SPA binding): 8.41
[2]
  OX2 pKi (SPA binding): 5.11
[3]
  fraction unbound at 5 h, 5 μM: 0.066

## Cc1ccc(-n2nccn2)c(C(=O)N2C3CC(C3)[C@@H](C)C2CNc2nc3cccnc3s2)n1 (single isomer, unassigned) [Example 186, N-({(3R,4S) or (3S,4R)-4-methyl-2-[6-methyl-3-(2H-1,2,3-triazol-2-yl)pyridine-2-carbonyl]-2-azabicyclo[3.1.1]heptan-3-yl}methyl)-[1,3]thiazolo[5,4-b]pyridin-2-amine]
[1]
  OX1 pKi (SPA binding): 8.42
[2]
  OX2 pKi (SPA binding): 5.36
[3]
  fraction unbound at 5 h, 5 μM: 0.147

## Cc1ccc(-n2nccn2)c(C(=O)N2C3CC(C3)[C@@H](C)C2CNc2ccc(C(F)(F)F)cn2)n1 (single isomer, unassigned) [Example 183, N-{[(3R,4S) or (3S,4R)-4-methyl-2-[6-methyl-3-(2H-1,2,3-triazol-2-yl)pyridine-2-carbonyl]-2-azabicyclo[3.1.1]heptan-3-yl]methyl}-5-(trifluoromethyl)pyridin2-amine]
[1]
  OX1 pKi (SPA binding): 8.31
[2]
  OX2 pKi (SPA binding): 5.26
[3]
  fraction unbound at 5 h, 5 μM: 0.0256

## Cc1nc(C(=O)N2C3CC(C3)[C@H](C)C2COc2ccc(F)cc2)c(-c2ncccn2)s1 (single isomer, unassigned) [Example 115, (3R,4R) or (3S,4S)-3-[(4-fluorophenoxy)methyl]-4-methyl-2-[2-methyl-5-(pyrimidin-2-yl)-1,3-thiazole-4-carbonyl]-2-azabicyclo[3.1.1]heptane]
[1]
  OX1 pKi (SPA binding): 8.5
[2]
  OX2 pKi (SPA binding): 5.93
[3]
  fraction unbound at 5 h, 5 μM: 0.0151

## Cc1ccc(-n2nccn2)c(C(=O)N2C3CC(C3)[C@H](C)C2COc2ccc(F)cc2)n1 (single isomer, unassigned) [Example 105, (3S,4S or 3R,4R)-3-[(4-fluorophenoxy)methyl]-4-methyl-2-[6-methyl-3-(2H-1,2,3-triazol-2-yl)pyridine-2-carbonyl]-2-azabicyclo[3.1.1]heptane]
[1]; Table 1, [3H]SB-674042 2 nM, read-out: OX1 pKi (SPA binding) (converted)
  Ki: 6.31 nM
[2]; Table 1, [3H]EMPA 2 nM, read-out: OX2 pKi (SPA binding) (converted)
  Ki: 1320 nM
[3]
  fraction unbound at 5 h, 5 μM: 0.0116

## C[C@@H]1C2CC(C2)N(C(=O)c2cc(Cl)ccc2-n2nccn2)C1CNc1cnc(C(F)(F)F)cn1 (single isomer, unassigned) [Example 205, N-({(3R,4S) or (3S,4R)2-[5-chloro-2-(2H-1,2,3-triazol-2-yl)benozyl]-4-methyl-2-azabicyclo[3.1.1]heptan-3-yl}methyl)-5-(trifluoromethyl)pyrazin-2-amine]
[1]
  OX1 pKi (SPA binding): 8.59
[2]
  OX2 pKi (SPA binding): 5.34
[3]
  fraction unbound at 5 h, 5 μM: 0.0089

## C[C@@H]1C2CC(C2)N(C(=O)c2nn(C)cc2-c2ncccn2)C1CNc1ccc(C(F)(F)F)cn1 (single isomer, unassigned) [Example 215, N-{[(3R,4S) or (3S,4R)-4-methyl-2-{1-methyl-4-(pyrimidin-2-yl)-1H-pyrazole-3-carbonyl]-2-azabicyclo[3.1.1]heptan-3-yl]methyl}-5-(trifluoromethyl)pyridin-2-amine]
[1]
  OX1 pKi (SPA binding): 8.15
[2]
  OX2 pKi (SPA binding): 4.79
[3]
  fraction unbound at 5 h, 5 μM: 0.0761

## C[C@@H]1C2CC(C2)N(C(=O)c2cc(F)ccc2-n2nccn2)C1CNc1nc2cccnc2s1 (single isomer, unassigned) [Example 230, N-{[(3R,4S) or (3S,4R)-2-[5-fluoro-2-(2H-1,2,3-triazol-2-yl)benzoyl]-4-methyl-2-azabicyclo[3.1.1]heptan-3-yl]methyl}-[1,3]thiazolo[5,4-b]pyridin-2-amine]
[1]
  OX1 pKi (SPA binding): 8.46
[2]
  OX2 pKi (SPA binding): 5.32
[3]
  fraction unbound at 5 h, 5 μM: 0.0438

## C[C@@H]1C2CC(C2)N(C(=O)c2nn(C)cc2-c2ncccn2)C1CNc1ccc(C(F)(F)F)cn1 (mixture of isomers) [Example 213, cis-N-({4-methyl-2-[1-methyl-4-(pyrimidin-2-yl)-1H-pyrazole-3-carbonyl]-2-azabicyclo[3.1.1]heptan-3-yl}methyl)-5-(trifluoromethyl)pyridin-2-amine]
[1]
  OX1 pKi (SPA binding): 7.91
[2]
  OX2 pKi (SPA binding): 4.39
[3]
  fraction unbound at 5 h, 5 μM: 0.0876

Source: patent US11660293B2, “Substituted 2-azabicyclo[3.1.1]heptane and 2-azabicyclo[3.2.1]octane derivatives as orexin receptor antagonists” (Chronos Therapeutics Limited, priority 2017, dated 2023)
